pKd, pKi: −log10 of the molar value. Read-outs that look alike come from different tables or passages of the source.

Assay [1] concerns the target native HvExoI (Hordeum vulgare, UniProt Q9XEI3). As to the kind of experiment: Inhibition kinetics (Ki) with 4-nitrophenyl β-D-glucopyranoside substrate. In kind it is biochemical, barley (Hordeum vulgare). The settings on record: for ΔG: calculated from Ki; for ΔG / pKi: native HvExoI; for pKi: inhibition kinetics, 4-nitrophenyl β-D-glucopyranoside substrate, 30 °C, pH 5.25. As to the method:
Ki values of deoxy-glucose and alkyl β-D-glucoside derivatives, and G2SG-OMe with native HvExoI were derived from hydrolytic rates. Enzyme inactivation was monitored at 30 °C by incubating […] of the enzyme in 100 mM sodium acetate buffer, pH 5.25, containing 0.8–6.6 mM 4NPGlc as a substrate, 160 μg/ml BSA, and 3dGlc, 4dGlc, octyl-O-Glc, octyl-S-Glc and G2SG-OMe. Each inhibitor was tested at six concentrations at 0.4–3 times the Ki values in duplicate. We used the v = Vmax S / [KM × (1 + I/Ki) + S] equation to calculate Ki constant; Ki is defined as a dissociation constant of the enzyme-inhibitor complex. The enzyme activity was monitored at 410 nm and Dixon plots were used to determine Ki under the pseudo-first-order rate limiting conditions by a non-linear regression analysis, as described previously.

In assay [2] the target is recombinant HvExoI (Hordeum vulgare, UniProt Q9XEI3). As to the kind of experiment: Steady-state affinity binding by Surface Plasmon Resonance. Also on record: species or system barley (Hordeum vulgare). As to conditions: for ΔG: calculated from KD. As to the method:
Interaction between recombinant HvExoI and analytes Glc (molecular mass 180.2 g), G6SG-OMe (372.4 g) and PEG (n = 5–10); (380–420 g) were performed using Surface Plasmon Resonance (SPR) at 25 °C using the Biacore X100 V2.0.1 instrument (GE Healthcare, USA) equipped with the plus package. Purified recombinant HvExoI at 99% homogeneity (detected by SDS-PAGE) was covalently attached to a CM5 chip (GE Healthcare) in 10 mM sodium acetate buffer, pH 5.0. The carboxymethyl groups present on the dextran layer of the CM5 chip were activated with 1-ethyl-3-(3-dimethylaminopropyl) carbodiimide hydrochloride (EDC) and N-hydroxysuccinimide (NHS) (GE Healthcare). Any unoccupied reactive sites were blocked by a 7 min injection of 1 M ethanolamine hydrochloride-NaOH, pH 8.5. A ligand density of ~15.000 RU of recombinant HvExoI was achieved. Due to the fast rate constants of interactions, it was impossible to obtain individual rate constants ka and kd. […] For each interaction serial dilutions of analytes covering the 10 · KD − 0.1 · KD concentration ranges were prepared in 10 mM HEPES-NaOH buffer, pH 7.4 with 150 mM NaCl. Samples were injected onto the surface of a chip at a rate of 30 µl/min for 90 s, after which the formed enzyme/analyte complexes could dissociate for 90 s. As all analytes dissociated completely from the surface of the recombinant enzyme immobilised on a chip, no regeneration steps were needed. All responses were double referenced using a blank-immobilised reference surface (NHS + EDC-activated/deactivated) and a series of blank injections conducted to account for the system and injection artefacts. For each analyte at least one concentration was injected in duplicate. Triplicate experiments were performed, and the double-referenced data were globally fitted using a 1:1 equilibrium interaction model and the Biacore T200 v2.0 analysis software (GE Healthcare). Steady-state affinity binding constants KD (Supplementary Fig. 3) were calculated 30 s after the onset of injections using a 5 s window in an average response in the fit.

Sequence of recombinant HvExoI (Q9XEI3 entry or part of it): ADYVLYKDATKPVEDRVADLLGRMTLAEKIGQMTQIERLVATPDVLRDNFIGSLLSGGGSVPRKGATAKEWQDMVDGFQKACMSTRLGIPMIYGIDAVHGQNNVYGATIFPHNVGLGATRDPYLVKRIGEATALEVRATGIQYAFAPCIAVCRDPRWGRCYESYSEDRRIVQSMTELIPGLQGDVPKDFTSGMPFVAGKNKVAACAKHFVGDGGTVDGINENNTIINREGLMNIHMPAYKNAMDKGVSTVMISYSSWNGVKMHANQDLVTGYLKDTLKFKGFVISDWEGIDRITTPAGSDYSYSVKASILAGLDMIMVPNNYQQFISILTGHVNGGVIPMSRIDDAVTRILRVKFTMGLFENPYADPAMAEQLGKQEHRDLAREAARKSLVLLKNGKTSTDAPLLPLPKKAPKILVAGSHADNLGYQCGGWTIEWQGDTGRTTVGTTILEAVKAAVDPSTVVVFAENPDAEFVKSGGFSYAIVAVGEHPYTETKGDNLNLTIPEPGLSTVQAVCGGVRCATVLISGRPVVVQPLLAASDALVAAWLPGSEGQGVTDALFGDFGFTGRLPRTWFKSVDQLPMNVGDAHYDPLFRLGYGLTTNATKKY
Sequence of native HvExoI (Q9XEI3 entry or part of it): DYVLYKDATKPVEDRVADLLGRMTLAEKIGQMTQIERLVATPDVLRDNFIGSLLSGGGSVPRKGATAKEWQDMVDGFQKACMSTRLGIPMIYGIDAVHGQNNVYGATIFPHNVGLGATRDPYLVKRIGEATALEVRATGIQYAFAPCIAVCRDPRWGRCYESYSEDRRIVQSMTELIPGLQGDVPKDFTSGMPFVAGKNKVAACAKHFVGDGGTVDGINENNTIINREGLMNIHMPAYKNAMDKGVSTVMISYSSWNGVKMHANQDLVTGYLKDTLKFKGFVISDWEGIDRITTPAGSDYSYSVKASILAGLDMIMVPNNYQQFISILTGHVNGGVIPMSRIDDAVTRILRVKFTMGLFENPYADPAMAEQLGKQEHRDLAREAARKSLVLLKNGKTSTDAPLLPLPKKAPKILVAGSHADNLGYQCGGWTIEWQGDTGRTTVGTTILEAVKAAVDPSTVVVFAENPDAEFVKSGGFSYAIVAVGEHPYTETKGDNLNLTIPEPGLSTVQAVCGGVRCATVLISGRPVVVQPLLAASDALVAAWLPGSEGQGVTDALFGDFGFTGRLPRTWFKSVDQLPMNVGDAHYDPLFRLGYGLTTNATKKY

`O=C[C@H](O)C[C@H](O)[C@H](O)CO` [3dGlc, 3-deoxy-glucose]: in assay [1], the ΔG was -2.8 kcal/mol and the pKi is 2.01.
Consider `O=C[C@H](O)[C@@H](O)C[C@H](O)CO` [4dGlc, 4-deoxy-glucose], for which, in assay [1], the ΔG is -2.82 kcal/mol and the negative-log Ki (pKi) is 2.03.
Regarding `CO[C@@H]1O[C@H](CO)[C@@H](O)[C@H](O)[C@H]1S[C@@H]1O[C@H](CO)[C@@H](O)[C@H](O)[C@H]1O` [G2SG-OMe, methyl 2-S-β-D-glucopyranosyl-2-thio-β-D-glucopyranoside], the “fold weaker binding than G6SG-OMe” value in assay [1] (Ki of G2SG-OMe compared with KD of G6SG-OMe) is on record as “about 320 fold”. Moreover, in assay [1], the ΔG is -3.61 kcal/mol and the negative-log Ki (pKi) is 2.59.
For the compound `CO[C@@H]1O[C@H](CS[C@@H]2O[C@H](CO)[C@@H](O)[C@H](O)[C@H]2O)[C@@H](O)[C@H](O)[C@H]1O` [G6SG-OMe, methyl 6-S-β-D-glucopyranosyl-6-thio-β-D-glucopyranoside], the ΔG in assay [2] (recombinant HvExoI) was -6.96 kcal/mol. The pKd in assay [2] (steady-state affinity, Surface Plasmon Resonance, recombinant HvExoI, 25 °C, read-out: KD) was 5.10.
On to `OC[C@H]1OC(O)[C@H](O)[C@@H](O)[C@@H]1O` (stereo partly drawn) [Glc], for which, in assay [2], the pKd is 3.80. The ΔG in assay [2] (recombinant HvExoI) was -5.19 kcal/mol.
With `CCCCCCCCO[C@@H]1O[C@H](CO)[C@@H](O)[C@H](O)[C@H]1O` [Octyl-O-Glc, n-octyl β-D-glucopyranoside], in assay [1], the ΔG was -5.4 kcal/mol and the negative logarithm of the Ki (pKi) is 3.89.
`CCCCCCCCS[C@@H]1O[C@H](CO)[C@@H](O)[C@H](O)[C@H]1O` [Octyl-S-Glc, n-octyl 1-thio-β-D-glucopyranoside]: in assay [1], the ΔG is -4.11 kcal/mol and the negative logarithm of the Ki (pKi) is 2.96.

The pKi is the negative decadic logarithm of the Ki, by convention in mol/L. Broadly, the pKd is the Kd on a negative log10 scale, so that one unit is a factor of ten.

Values taken from PMC6527550, “Discovery of processive catalysis by an exo-hydrolase with a pocket-shaped active site” (Nature Communications, 2019).
